21 compounds from ChEMBL document CHEMBL1151752, “Synthesis and structure-activity relationships of 2-amino-1-aroylnaphthalene and 2-hydroxy-1-aroylnaphthalenes as potent antitubulin agents” (J Med Chem, 2008) can be followed below.

As a reminder, the IC50 is the concentration that gives 50% inhibition. Lower therefore signals higher potency.

Each structure is given as a SMILES string. A value given as a limit tells only on which side of the number the result lay.

Assay [1] has as its system NCI-H460. The assay can be described thus: Growth inhibition of human H460 cells after 72 hrs by methylene blue dye assay. The format is functional, cell-based. The following applies: NCI-H460, 72 h.
In assay [2] the test system is HT-29. In words: Growth inhibition of human HT-29 cells after 72 hrs by methylene blue dye assay. The following applies: HT-29, 72 h. The format is functional, cell-based.
For assay [3], the system named is MKN-45. The assay can be described thus: Growth inhibition of human MKN45 cells after 72 hrs by methylene blue dye assay. The format is functional, cell-based. The following applies: MKN-45, 72 h.
Assay [4] deals with KB. The assay can be described thus: Growth inhibition of human Pgp170 overexpressing multidrug resistant-KB-VIN10 cells after 72 hrs by methylene blue dye assay. In kind it is functional, cell-based.
Assay [5] has as its system KB. The assay can be described thus: Growth inhibition of human KB cells after 72 hrs by methylene blue dye assay. In kind it is functional, cell-based.
A short description of assay [6]: Displacement of [3H]colchicine from tubulin after 2 hrs at 5 uM. A general note: In a radioligand displacement assay an active substance lowers the binding of a labelled ligand.
In assay [7] the test system is KB. The assay can be described thus: Growth inhibition of human KB-7D cells overexpressing multidrug resistant associated protein after 72 hrs by methylene blue dye assay. The format is functional, cell-based.
A short description of assay [8]: Inhibition of tubulin polymerization after 30 mins.
Assay [9] in a line: Growth inhibition of human fibroblast Detrot 551 cells after 72 hrs by methylene blue dye assay. The format is cell-based. The following applies: Detrot 551, 72 h.
For assay [10], the system named is KB. The assay can be described thus: Growth inhibition of human Pgp170 overexpressing multidrug resistant-KB-TAX50 cells after 72 hrs by methylene blue dye assay. In kind it is functional, cell-based.

`COc1ccc2c(O)c(C(=O)c3cc(OC)c(OC)c(OC)c3)ccc2c1`: the half-inhibitory concentration (IC50) in assay [1], in assay [2], in assay [3], in assay [4] and in [5] was > 10 µM each time.
Turning to `COc1ccc2c(C(=O)c3cc(OC)c(OC)c(OC)c3)c(O)ccc2c1`, the IC50 stood at 0.0126 µM in assay [1]; 0.0263 µM in [2]; 0.021 µM in assay [3]; 0.011 µM in assay [4]; 0.0169 µM in assay [7]; 2.6 µM in assay [8]. For the same compound, the IC50 in [9] was > 1 µM; in assay [10], 0.015 µM; in [5] it was 0.0082 µM. In addition, in assay [6], the Activity came out at 75%.
`COc1ccc2c(C(=O)c3cc(OC)c(OC)c(OC)c3)c(N)ccc2c1`: the IC50 is 0.0036 µM in assay [1]; 0.0154 µM in assay [2]; 0.0021 µM in assay [3]; 0.0033 µM in assay [4]; 0.0035 µM in assay [7]; 2.4 µM in assay [8]. The half-maximal inhibitory concentration (IC50) in assay [9] was > 1 µM; in assay [10], 0.0031 µM; in [5] it was 0.0029 µM. The compound also gave an Activity in assay [6] of 85%.
Consider `COc1ccc2c(OC)c(C(=O)c3cc(OC)c(OC)c(OC)c3)ccc2c1`, for which the IC50 in [1], in [2], in assay [3], in assay [4] and in assay [5] was > 10 µM throughout.
Take `COc1ccc2c(C(=O)c3cc(OC)c(OC)c(OC)c3)c(C)ccc2c1`: the IC50 in assay [1] was 0.321 µM; in [2] it was 0.412 µM; in assay [3] it was 0.254 µM; in [4], 0.263 µM; in assay [8], 2.9 µM; in assay [5], 0.276 µM. The Activity in assay [6] stood at 67%.
For `COc1ccc2c(C(=O)c3cc(OC)c(OC)c(OC)c3)cccc2c1`, the half-maximal inhibitory concentration (IC50) amounted to 0.0855 µM in [1]; 0.0694 µM in assay [2]; 0.0441 µM in assay [3]; 0.058 µM in assay [4]; 4.3 µM in [8]; 0.0729 µM in [5]. Moreover, the Activity in assay [6] came to 68%.
With `COc1ccc(/C=C\c2cc(OC)c(OC)c(OC)c2)cc1O`, in assay [6], the Activity came out at 93%.
Consider `COc1ccc2c(C(=O)c3cc(OC)c(OC)c(OC)c3)c(OC)ccc2c1`, for which the 50% inhibitory concentration (IC50) in assay [1] was 0.084 µM; in [2] it was 0.144 µM; in [3], 0.053 µM; in [4] it was 0.07 µM; in [8], 2.7 µM; in assay [5] it was 0.065 µM. In [6], this compound yielded an Activity of 52%.
Regarding `COc1ccc2c(N)c(C(=O)c3cc(OC)c(OC)c(OC)c3)ccc2c1`, the IC50 in [1] was > 10 µM; in [2] it was 9.85 µM; in [3], 7.43 µM; in assay [4], 7.91 µM; in [8] it was > 10 µM; in [5], 8.8 µM.
With `COc1ccc2cc(C(=O)c3cc(OC)c(OC)c(OC)c3)ccc2c1`, the IC50 came out at 0.716 µM in assay [1]; 0.548 µM in assay [2]; 0.462 µM in [3]; 0.53 µM in [4]; 0.51 µM in assay [5].
For `CCc1ccc2cc(OC)ccc2c1C(=O)c1cc(OC)c(OC)c(OC)c1` the same measures were 0.764 µM, 0.667 µM, 0.32 µM, 0.512 µM and 0.6 µM.
As to `COc1cc([C@@H]2c3cc4c(cc3[C@@H](O[C@@H]3O[C@@H]5CO[C@@H](C)O[C@H]5[C@H](O)[C@H]3O)[C@H]3COC(=O)[C@H]23)OCO4)cc(OC)c1O` [ETOPOSIDE], the IC50 stood at 23 µM in assay [4], 54 µM in [7] and 3.5 µM in assay [10].
Take `COc1cc2c(c(OC)c1OC)-c1ccc(OC)c(=O)cc1[C@@H](NC(C)=O)CC2` [COLCHICINE]: the concentration for half-maximal inhibition (IC50) in [1] stood at 0.018 µM; in assay [2] it was 0.01 µM; in assay [8], 3.2 µM; in [5], 0.011 µM.
Regarding `CNc1ccc2cc(OC)ccc2c1C(=O)c1cc(OC)c(OC)c(OC)c1`, the 50% inhibitory concentration (IC50) worked out at 0.416 µM in [1]; 0.512 µM in assay [2]; 0.338 µM in [3]; 0.364 µM in assay [4]; 0.381 µM in [5].
For `CCCOc1ccc2cc(OC)ccc2c1C(=O)c1cc(OC)c(OC)c(OC)c1` the same measures were 2.72 µM, 2.85 µM, 1.76 µM, 2.43 µM and 2.6 µM.
For `COc1ccc2c(C(=O)c3cc(OC)c(OC)c(OC)c3)c(N(C)C)ccc2c1`, in that order: > 10 µM, > 10 µM, > 10 µM, > 10 µM and > 10 µM.
Take `CC(=O)O[C@H]1C(=O)[C@@]2(C)[C@H]([C@H](OC(=O)c3ccccc3)[C@]3(O)C[C@H](OC(=O)[C@H](O)[C@@H](NC(=O)c4ccccc4)c4ccccc4)C(C)=C1C3(C)C)[C@]1(OC(C)=O)CO[C@@H]1C[C@@H]2O` [PACLITAXEL]: the IC50 in [4] was determined as 16.5 µM; in assay [7] it was 0.0079 µM; in assay [10], 0.273 µM; in [5], 0.0033 µM.
With `CCOc1ccc2cc(OC)ccc2c1C(=O)c1cc(OC)c(OC)c(OC)c1`, the IC50 in assay [1] stood at 1.21 µM; in [2], 1.13 µM; in assay [3] it was 0.874 µM; in assay [4], 0.912 µM; in assay [5], 1 µM.
For `CC[C@]1(O)C[C@H]2CN(CCc3c([nH]c4ccccc34)[C@@](C(=O)OC)(c3cc4c(cc3OC)N(C=O)[C@H]3[C@@](O)(C(=O)OC)[C@H](OC(C)=O)[C@]5(CC)C=CCN6CC[C@]43[C@@H]65)C2)C1` [VINCRISTINE], the half-maximal inhibitory concentration (IC50) in assay [4] was determined as 0.0901 µM; in assay [7], 0.0012 µM; in assay [10], 0.0176 µM; in assay [5], 0.0004 µM.
As for `COc1ccc2c(C(=O)c3cc(OC)c(OC)c(OC)c3)c[nH]c2c1`, the IC50 was found to be 0.0071 µM in assay [1]; 0.0059 µM in assay [2]; 0.0032 µM in [3]; 0.0062 µM in [4]; 2.8 µM in assay [8]; 0.0046 µM in assay [5]. The Activity in assay [6] was found to be 85%.
On to `CCCc1ccc2cc(OC)ccc2c1C(=O)c1cc(OC)c(OC)c(OC)c1`, for which the IC50 in [1] is 0.987 µM; in assay [2], 1.32 µM; in [3], 0.84 µM; in assay [4] it was 1.1 µM; in assay [5], 1 µM.
